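Cells were grown in 96-well plates and exposed to each compound for 48 hours at five concentrations; endpoints were interpolated linearly between bracketing concentrations, or set to the highest concentration if not reached. At the GI50, growth is halved.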 The source made the active and inactive calls. Rule as the data show it: active = GI50 up to about 1.1 µM and inactive = higher.
Tests used:
Test in all cases: DTP human tumour cell line panel, 48 h
A549 = system: A549
BT-549 = system: BT-549
DU-145 = system: DU-145
HCC 2998 = system: HCC 2998
HCT-116 = system: HCT-116
HCT-15 = system: HCT-15
IGROV-1 = system: IGROV-1
M14 = system: M14
MDA-N = system: MDA-N
MOLT-4 = system: MOLT-4
Malme-3M = system: Malme-3M
NCI-H226 = system: NCI-H226
OVCAR-3 = system: OVCAR-3
OVCAR-8 = system: OVCAR-8
PC-3 = system: PC-3
RXF 393 = system: RXF 393
SF-268 = system: SF-268
SK-MEL-28 = system: SK-MEL-28
SK-MEL-2 = system: SK-MEL-2
SNB-75 = system: SNB-75

Structure (SMILES)	GI50 (A549)	GI50 (BT-549)	GI50 (DU-145)	GI50 (HCC 2998)	GI50 (HCT-116)	GI50 (HCT-15) [µM]	GI50 (IGROV-1)	GI50 (M14)	GI50 (MDA-N)	GI50 (MOLT-4)	GI50 (Malme-3M)	GI50 (NCI-H226)	GI50 (OVCAR-3)	GI50 (OVCAR-8)	GI50 (PC-3)	GI50 (RXF 393)	GI50 (SF-268)	GI50 (SK-MEL-28)	GI50 (SK-MEL-2)	GI50 (SNB-75)
C=CCc1ccccc1C1CC2(C(=O)OC)OC1C(C(=O)OC)=C2C(=O)OC (stereo unspecified)	> 10 µM (inactive)	> 10 µM (inactive)	> 10 µM (inactive)	> 10 µM (inactive)	> 10 µM (inactive)	> 10	> 10 µM (inactive)	> 10 µM (inactive)	> 10 µM (inactive)	> 10 µM (inactive)	> 10 µM (inactive)	> 10 µM (inactive)	> 10 µM (inactive)	> 10 µM (inactive)	> 10 µM (inactive)	> 10 µM (inactive)	> 10 µM (inactive)	> 10 µM (inactive)	> 10 µM (inactive)	
COC(=O)c1c(O)ccc2c1c1c(n2CCc2ccccc2)C(=O)c2ccccc2C1=O	8.97 µM (inactive)	15.4 µM (inactive)	14.4 µM (inactive)	2.48 µM (inactive)	10.9 µM (inactive)	9.35	11.9 µM (inactive)	15.4 µM (inactive)	10.2 µM (inactive)	4.06 µM (inactive)	12.1 µM (inactive)	14.6 µM (inactive)	6.7 µM (inactive)	8.18 µM (inactive)	11.6 µM (inactive)	13.3 µM (inactive)	12.7 µM (inactive)	16 µM (inactive)	15.1 µM (inactive)	
CNC(=O)C(C)C1C(=O)/C(=C(O)/C=C\C(C)=C\C(C)C2OC3(C)OC(C=CC34CO4)C2C)C(=O)N1C1CCC(O)C(C)O1 (stereo unspecified)	> 100 µM (inactive)	> 100 µM (inactive)	> 100 µM (inactive)	> 100 µM (inactive)	> 100 µM (inactive)	> 100	> 100 µM (inactive)	> 100 µM (inactive)	> 100 µM (inactive)	> 100 µM (inactive)	> 100 µM (inactive)		> 100 µM (inactive)	> 100 µM (inactive)	> 100 µM (inactive)	> 100 µM (inactive)	> 100 µM (inactive)	> 100 µM (inactive)	> 100 µM (inactive)	> 100 µM (inactive)
Cc1cc(C)nc(NS(=O)(=O)c2ccc(NC(=O)c3cc([N+](=O)[O-])cc([N+](=O)[O-])c3)cc2)n1	> 100 µM (inactive)	> 100 µM (inactive)	> 100 µM (inactive)		> 100 µM (inactive)	> 100	> 100 µM (inactive)	45.8 µM (inactive)	> 100 µM (inactive)	1.79 µM (inactive)	42.1 µM (inactive)	> 100 µM (inactive)	30.5 µM (inactive)	> 100 µM (inactive)	58.7 µM (inactive)	> 100 µM (inactive)	44.4 µM (inactive)	99.8 µM (inactive)	> 100 µM (inactive)	15.6 µM (inactive)
Clc1ccc(OCc2nnc(CCCCCCCCc3nnc(COc4ccc(Cl)cc4Cl)o3)o2)c(Cl)c1	49.2 µM (inactive)	> 100 µM (inactive)	85.9 µM (inactive)	> 100 µM (inactive)	15.7 µM (inactive)	97.5	9.4 µM (inactive)	> 100 µM (inactive)	> 100 µM (inactive)	14.3 µM (inactive)	9.44 µM (inactive)	> 100 µM (inactive)			60.3 µM (inactive)	> 100 µM (inactive)	42 µM (inactive)	> 100 µM (inactive)	> 100 µM (inactive)	> 100 µM (inactive)
CCc1nc(N)nc(N)c1-c1ccc(N2CCOCC2)c(N=[N+]=[N-])c1	21.2 µM (inactive)	> 78.2 µM (inactive)	> 82.8 µM (inactive)	47.9 µM (inactive)	18.4 µM (inactive)	20.3	28.2 µM (inactive)	54.3 µM (inactive)	57.1 µM (inactive)	64.3 µM (inactive)		98.2 µM (inactive)	77.6 µM (inactive)	61.7 µM (inactive)	42.6 µM (inactive)	> 83.2 µM (inactive)	44.7 µM (inactive)	> 100 µM (inactive)	> 100 µM (inactive)	> 92 µM (inactive)
CCC[C@@H]1C(=O)N=C(N)N1C(=O)OCc1ccccc1		> 100 µM (inactive)	> 100 µM (inactive)	> 100 µM (inactive)	> 100 µM (inactive)	> 100	> 100 µM (inactive)		> 100 µM (inactive)	> 100 µM (inactive)	> 100 µM (inactive)	> 100 µM (inactive)	> 100 µM (inactive)	> 100 µM (inactive)	> 100 µM (inactive)	> 100 µM (inactive)	> 100 µM (inactive)	> 100 µM (inactive)	> 100 µM (inactive)	> 100 µM (inactive)
